Structures are written as SMILES. Bridge positions count the residues as written; N and C are the ends. Square brackets hold non-standard residues; d marks the D form. Triazole bridges read from a SMILES are 1,4-linked. Peptide text beside a SMILES is read from it. * marks the point of attachment. Orn(N3) = [N-]=[N+]=NCCC[C@H](N)C(=O)O; NMeY = CN[C@@H](Cc1ccc(O)cc1)C(=O)O; Aha = [N-]=[N+]=NCC[C@H](N)C(=O)O; NMeR = CN[C@@H](CCCNC(=N)N)C(=O)O; X1 = O=C(O)C[C@@H](N*)c1ccc(O)cc1; Cit = NC(=O)NCCC[C@H](N)C(=O)O; Hpra = C#CCC[C@H](N)C(=O)O; Pra = C#CC[C@H](N)C(=O)O; Sar = CNCC(=O)O Bounds are passed on as bounds.

The source of these data is US11612661B2 (priority 2019, dated 2023).

One experiment concerns the target rat α9α10 nAChR (Rattus norvegicus, UniProt P43144+Q9JLB5). Kind of experiment: cell-based. Format: cell-based. The following applies: for IC50: α9α10 nAChR IC50 (nM) Rat.
The next experiment addresses human α9α10 nAChR (Homo sapiens, UniProt Q9GZZ6+Q9UGM1). Kind of experiment: cell-based. The format is cell-based.

Chain of human α9α10 nAChR (Q9UGM1 26-479 limits assumed): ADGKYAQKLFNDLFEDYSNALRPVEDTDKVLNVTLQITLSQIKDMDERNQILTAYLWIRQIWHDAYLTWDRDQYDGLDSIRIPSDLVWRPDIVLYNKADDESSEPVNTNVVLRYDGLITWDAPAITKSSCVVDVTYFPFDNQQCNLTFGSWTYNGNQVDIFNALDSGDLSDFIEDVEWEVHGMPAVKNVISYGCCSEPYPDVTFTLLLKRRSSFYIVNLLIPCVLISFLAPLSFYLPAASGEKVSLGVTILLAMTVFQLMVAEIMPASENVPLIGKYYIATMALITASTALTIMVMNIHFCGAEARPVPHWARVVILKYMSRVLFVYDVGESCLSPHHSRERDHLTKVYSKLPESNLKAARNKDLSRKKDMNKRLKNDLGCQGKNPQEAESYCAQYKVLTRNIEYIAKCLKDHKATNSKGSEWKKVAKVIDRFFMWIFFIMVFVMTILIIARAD
Chain of human α9α10 nAChR (Q9GZZ6 25-450 limits assumed): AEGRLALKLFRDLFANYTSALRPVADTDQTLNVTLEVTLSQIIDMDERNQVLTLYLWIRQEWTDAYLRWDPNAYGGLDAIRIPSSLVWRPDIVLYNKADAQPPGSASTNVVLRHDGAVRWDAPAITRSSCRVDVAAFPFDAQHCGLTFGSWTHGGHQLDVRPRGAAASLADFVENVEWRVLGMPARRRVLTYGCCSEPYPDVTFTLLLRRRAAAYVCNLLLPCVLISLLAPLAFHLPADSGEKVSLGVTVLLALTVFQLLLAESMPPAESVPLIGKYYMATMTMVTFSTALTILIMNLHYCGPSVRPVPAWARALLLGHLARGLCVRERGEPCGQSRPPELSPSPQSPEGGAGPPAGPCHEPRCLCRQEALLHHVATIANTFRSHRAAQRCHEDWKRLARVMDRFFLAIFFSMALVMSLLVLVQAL
Chain of rat α9α10 nAChR (P43144 26-479 limits assumed): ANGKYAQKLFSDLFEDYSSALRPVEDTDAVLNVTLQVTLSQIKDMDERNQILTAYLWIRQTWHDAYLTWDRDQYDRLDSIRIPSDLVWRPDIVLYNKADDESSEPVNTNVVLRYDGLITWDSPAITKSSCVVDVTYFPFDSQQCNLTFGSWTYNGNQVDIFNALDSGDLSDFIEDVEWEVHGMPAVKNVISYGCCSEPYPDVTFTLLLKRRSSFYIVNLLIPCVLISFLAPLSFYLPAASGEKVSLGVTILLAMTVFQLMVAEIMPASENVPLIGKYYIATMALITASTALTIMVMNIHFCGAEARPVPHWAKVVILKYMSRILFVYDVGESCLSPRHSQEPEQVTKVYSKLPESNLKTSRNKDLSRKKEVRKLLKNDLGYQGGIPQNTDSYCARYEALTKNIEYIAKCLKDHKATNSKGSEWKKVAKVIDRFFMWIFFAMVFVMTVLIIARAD
Chain of rat α9α10 nAChR (Q9JLB5 25-447 limits assumed): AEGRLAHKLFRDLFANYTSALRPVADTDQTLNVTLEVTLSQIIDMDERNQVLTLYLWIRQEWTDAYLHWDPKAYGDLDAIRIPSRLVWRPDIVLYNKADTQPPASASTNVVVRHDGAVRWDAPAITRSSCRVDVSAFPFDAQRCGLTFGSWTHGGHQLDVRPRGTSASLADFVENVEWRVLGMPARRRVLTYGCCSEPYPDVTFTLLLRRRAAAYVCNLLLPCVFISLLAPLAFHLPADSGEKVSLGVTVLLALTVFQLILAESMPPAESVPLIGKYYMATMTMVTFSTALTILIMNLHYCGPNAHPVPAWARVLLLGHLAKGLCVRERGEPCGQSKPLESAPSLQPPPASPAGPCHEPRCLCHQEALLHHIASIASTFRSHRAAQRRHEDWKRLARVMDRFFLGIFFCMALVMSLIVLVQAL

On to `C[C@@H](O)[C@@H]1NC(=O)[C@@H]2CCn3cc(nn3)CC[C@@H](C(=O)N[C@@H](Cc3ccc(O)cc3)C(=O)O)NC(=O)[C@H](CCC(N)=O)NC(=O)[C@H](Cc3c[nH]c4ccccc34)NC(=O)[C@H](CCCNC(N)=O)NC(=O)[C@H](CSSC[C@H](NC(=O)CN)C(=O)N2)NC(=O)[C@H](CCCNC(=N)N)NC(=O)[C@@H]2CCCN2C(=O)[C@H](CC(=O)O)NC1=O` [Ii, L-tyrosine, glycyl-L-cysteinyl-(2S)-2-aminobutanoyl-L-threonyl-L-α-aspartyl-L-prolyl-L-arginyl-L-cysteinyl-N5-(aminocarbonyl)-L-ornithyl-L-tryptophyl-L-glutaminyl-L-(2S)-2-aminobutanoyl-cyclic (2→8)-disulfide-cyclic 3^4,12^4-(1H-1,2,3-triazole-1,4-diyl)] (H-GC[Aha]TDPRC[Cit]WQ[Hpra]Y-OH; disulfide 2-8; triazole 3-12), for which the IC50 against rat α9α10 nAChR was determined as 1.6 ± 0.6 nM; at human α9α10 nAChR, 3.4 ± 1.4 nM.

In the case of `C[C@@H](O)[C@@H]1NC(=O)[C@@H]2CCCc3cn(nn3)C[C@@H](C(=O)N[C@@H](Cc3ccc(O)cc3)C(=O)O)NC(=O)[C@H](CCC(N)=O)NC(=O)[C@H](Cc3c[nH]c4ccccc34)NC(=O)[C@H](CCCNC(N)=O)NC(=O)[C@H](CSSC[C@H](NC(=O)CN)C(=O)N2)NC(=O)[C@H](CCCNC(=N)N)NC(=O)[C@@H]2CCCN2C(=O)[C@H](CC(=O)O)NC1=O` [Ij, L-tyrosine, glycyl-L-cysteinyl-(2S)-2-aminopentanoyl-L-alanyl-L-threonyl-L-α-aspartyl-L-prolyl-L-arginyl-L-cysteinyl-N5-(aminocarbonyl)-L-ornithyl-L-3-iodotyrosyl-L-glutaminyl-L-alanyl-cyclic (2→8)-disulfide-cyclic 3^5,12^3-(1H-1,2,3-triazole-4,1-diyl)], the IC50 was determined as 69 ± 8.5 nM against rat α9α10 nAChR and 152 ± 71 nM at human α9α10 nAChR.

As for `C[C@@H](O)[C@@H]1NC(=O)[C@@H]2Cn3cc(nn3)CCC[C@@H](C(=O)N[C@@H](Cc3ccc(O)cc3)C(=O)O)NC(=O)[C@H](CCC(N)=O)NC(=O)[C@H](Cc3c[nH]c4ccccc34)NC(=O)[C@H](CCCNC(N)=O)NC(=O)[C@H](CSSC[C@H](NC(=O)CN)C(=O)N2)NC(=O)[C@H](CCCNC(=N)N)NC(=O)[C@@H]2CCCN2C(=O)[C@H](CC(=O)O)NC1=O` [Ik, L-tyrosine, glycyl-L-cysteinyl-L-alanyl-L-threonyl-L-α-aspartyl-L-prolyl-L-arginyl-L-cysteinyl-N5-(aminocarbonyl)-L-ornithyl-L-tryptophyl-L-glutaminyl-L-(2S)-2-aminopentanoyl-cyclic (2→8)-disulfide-cyclic 3^3,12^5-(1H-1,2,3-triazole-1,4-diyl)], the results for the IC50 on rat α9α10 nAChR and on human α9α10 nAChR were 9.5 ± 1.3 nM and 16.6 ± 1.1 nM, respectively.

For the compound `C[C@@H](O)[C@@H]1NC(=O)[C@@H]2Cc3cn(nn3)CCC[C@@H](C(=O)N[C@@H](Cc3ccc(O)cc3)C(=O)N(C)CC(=O)O)NC(=O)[C@H](CCC(N)=O)NC(=O)[C@H](Cc3c[nH]c4ccccc34)NC(=O)[C@H](CCCNC(N)=O)NC(=O)[C@H](CSSC[C@H](NC(=O)CN)C(=O)N2)NC(=O)[C@H](CCCNC(=N)N)NC(=O)[C@@H]2CCCN2C(=O)[C@H](CC(=O)O)NC1=O` [In, glycine, glycyl-L-cysteinyl-L-alanyl-L-threonyl-L-α-aspartyl-L-prolyl-L-arginyl-L-cysteinyl-N5-(aminocarbonyl)-L-ornithyl-L-tryptophyl-L-glutaminyl-L-norvalyl-L-tyrosyl-N-methyl-cyclic (2→8)-disulfide-cyclic 3^3,12^5-(1H-1,2,3-triazole-4,1-diyl)] (H-GC[Pra]TDPRC[Cit]WQ[Orn(N3)]Y[Sar]-OH; disulfide 2-8; triazole 3-12), the figures for the IC50 against rat α9α10 nAChR and against human α9α10 nAChR were not above 10 nM and 37 ± 15 nM, respectively.

`C[C@@H](O)[C@@H]1NC(=O)[C@@H]2Cc3cn(nn3)CCC[C@@H](C(=O)N[C@@H](Cc3ccc(O)cc3)C(=O)N[C@H](Cc3ccc(O)cc3)C(=O)O)NC(=O)[C@H](CCC(N)=O)NC(=O)[C@H](Cc3c[nH]c4ccccc34)NC(=O)[C@H](CCCNC(N)=O)NC(=O)[C@H](CSSC[C@H](NC(=O)CN)C(=O)N2)NC(=O)[C@H](CCCNC(=N)N)NC(=O)[C@@H]2CCCN2C(=O)[C@H](CC(=O)O)NC1=O` [Io, D-tyrosine, glycyl-L-cysteinyl-L-alanyl-L-threonyl-L-α-aspartyl-L-prolyl-L-arginyl-L-cysteinyl-N5-(aminocarbonyl)-L-ornithyl-L-tryptophyl-L-glutaminyl-L-norvalyl-L-tyrosyl-cyclic (2→8)-disulfide-cyclic 3^3,12^5-(1H-1,2,3-triazole-4,1-diyl)] (H-GC[Pra]TDPRC[Cit]WQ[Orn(N3)]Y[dY]-OH; disulfide 2-8; triazole 3-12): the IC50 at rat α9α10 nAChR was not above 10 nM; on human α9α10 nAChR it was 59 nM.

For the compound `C[C@@H](O)[C@@H]1NC(=O)[C@@H]2Cc3cn(nn3)CCC[C@@H](C(=O)N[C@@H](Cc3ccc(O)cc3)C(=O)N(C)[C@@H](Cc3ccc(O)cc3)C(=O)O)NC(=O)[C@H](CCC(N)=O)NC(=O)[C@H](Cc3c[nH]c4ccccc34)NC(=O)[C@H](CCCNC(N)=O)NC(=O)[C@H](CSSC[C@H](NC(=O)CN)C(=O)N2)NC(=O)[C@H](CCCNC(=N)N)NC(=O)[C@@H]2CCCN2C(=O)[C@H](CC(=O)O)NC1=O` [Ip, L-tyrosine, glycyl-L-cysteinyl-L-alanyl-L-threonyl-L-α-aspartyl-L-prolyl-L-arginyl-L-cysteinyl-N5-(aminocarbonyl)-L-ornithyl-L-tryptophyl-L-glutaminyl-L-norvalyl-L-tyrosyl-N-methyl-cyclic (2→8)-disulfide-cyclic 3^3,12^5-(1H-1,2,3-triazole-4,1-diyl)] (H-GC[Pra]TDPRC[Cit]WQ[Orn(N3)]Y[NMeY]-OH; disulfide 2-8; triazole 3-12), the values for the IC50 on rat α9α10 nAChR and against human α9α10 nAChR were not above 10 nM and 26 ± 1.4 nM, respectively.

In the case of `C[C@@H](O)[C@@H]1NC(=O)[C@@H]2Cc3cn(nn3)CCC[C@@H](C(=O)O)NC(=O)[C@H](CCC(N)=O)NC(=O)[C@H](Cc3c[nH]c4ccccc34)NC(=O)[C@H](CCCNC(N)=O)NC(=O)[C@H](CSSC[C@H](NC(=O)CN)C(=O)N2)NC(=O)[C@H](CCCNC(=N)N)NC(=O)[C@@H]2CCCN2C(=O)[C@H](CC(=O)O)NC1=O` [Iq, L-norvaline, glycyl-L-cysteinyl-L-alanyl-L-threonyl-L-α-aspartyl-L-prolyl-L-arginyl-L-cysteinyl-N5-(aminocarbonyl)-L-ornithyl-L-tryptophyl-L-glutaminyl-cyclic (2→8)-disulfide-cyclic 3^3,12^5-(1H-1,2,3-triazole-4,1-diyl)] (H-GC[Pra]TDPRC[Cit]WQ[Orn(N3)]-OH; disulfide 2-8; triazole 3-12), on rat α9α10 nAChR, the “Loss in activity on the rat channel on deletion of amino acid 13 (1a vs 1q)” value is “approximately 10 fold” and the IC50 was 69 ± 2 nM. Also, at human α9α10 nAChR, the IC50 is more than 300 nM and the “Loss of activity on the human channel on deletion of amino acid 13 (1a vs 1q)” value was “greater than 100 fold”.

As to `C[C@@H](O)[C@@H]1NC(=O)[C@@H]2Cc3cn(nn3)CCC[C@@H](C(=O)N(C)[C@@H](Cc3ccc(O)cc3)C(=O)O)NC(=O)[C@H](CCC(N)=O)NC(=O)[C@H](Cc3c[nH]c4ccccc34)NC(=O)[C@H](CCCNC(N)=O)NC(=O)[C@H](CSSC[C@H](NC(=O)CN)C(=O)N2)NC(=O)[C@H](CCCNC(=N)N)NC(=O)[C@@H]2CCCN2C(=O)[C@H](CC(=O)O)NC1=O` [Ir, L-tyrosine, glycyl-L-cysteinyl-L-alanyl-L-threonyl-L-α-aspartyl-L-prolyl-L-arginyl-L-cysteinyl-N5-(aminocarbonyl)-L-ornithyl-L-tryptophyl-L-glutaminyl-L-norvalyl-N-methyl-cyclic (2→8)-disulfide-cyclic 3^3,12^5-(1H-1,2,3-triazole-4,1-diyl)] (H-GC[Pra]TDPRC[Cit]WQ[Orn(N3)][NMeY]-OH; disulfide 2-8; triazole 3-12), the IC50 at rat α9α10 nAChR is 31 ± 0.7 nM; on human α9α10 nAChR, approximately 100 nM.

With `C[C@@H](O)[C@@H]1NC(=O)[C@@H]2Cc3cn(nn3)CCC[C@@H](C(=O)N[C@H](CC(=O)O)c3ccc(O)cc3)NC(=O)[C@H](CCC(N)=O)NC(=O)[C@H](Cc3c[nH]c4ccccc34)NC(=O)[C@H](CCCNC(N)=O)NC(=O)[C@H](CSSC[C@H](NC(=O)CN)C(=O)N2)NC(=O)[C@H](CCCNC(=N)N)NC(=O)[C@@H]2CCCN2C(=O)[C@H](CC(=O)O)NC1=O` [Iu, (R)-3-(amino)-3-(4-hydroxyphenyl)propionic acid, glycyl-L-cysteinyl-L-alanyl-L-threonyl-L-α-aspartyl-L-prolyl-L-arginyl-L-cysteinyl-N5-(aminocarbonyl)-L-ornithyl-L-tryptophyl-L-glutaminyl-L-norvalyl-cyclic (2→8)-disulfide-cyclic 3^3,12^5-(1H-1,2,3-triazole-4,1-diyl)] (H-GC[Pra]TDPRC[Cit]WQ[Orn(N3)]-X1; disulfide 2-8; triazole 3-12), the values for the IC50 against rat α9α10 nAChR and against human α9α10 nAChR were less than 30 nM and approximately 100 nM, respectively.

For `C[C@@H](O)[C@@H]1NC(=O)[C@@H]2Cc3cn(nn3)CCC[C@@H](C(=O)N(C)[C@@H](CCCNC(=N)N)C(=O)O)NC(=O)[C@H](CCC(N)=O)NC(=O)[C@H](Cc3c[nH]c4ccccc34)NC(=O)[C@H](CCCNC(N)=O)NC(=O)[C@H](CSSC[C@H](NC(=O)CN)C(=O)N2)NC(=O)[C@H](CCCNC(=N)N)NC(=O)[C@@H]2CCCN2C(=O)[C@H](CC(=O)O)NC1=O` [Iv, L-arginine, glycyl-L-cysteinyl-L-alanyl-L-threonyl-L-α-aspartyl-L-prolyl-L-arginyl-L-cysteinyl-N5-(aminocarbonyl)-L-ornithyl-L-tryptophyl-L-glutaminyl-L-norvalyl-N-methyl-cyclic (2→8)-disulfide-cyclic 3^3,12^5-(1H-1,2,3-triazole-4,1-diyl)] (H-GC[Pra]TDPRC[Cit]WQ[Orn(N3)][NMeR]-OH; disulfide 2-8; triazole 3-12), the IC50 against rat α9α10 nAChR is less than 30 nM; at human α9α10 nAChR, approximately 100 nM.
